Structures are written as SMILES.

One data set can be described thus: MTT cytotoxicity assay. Format: cell-based, human. Particulars: human; neutrophil-differentiated HL-60 cells, 72 h, 100 µM. As to the method: To verify the cytotoxicity of the acrylonitrile derivatives, the MTT reduction method was performed. Briefly, HL-60 cells were seeded in a flat-bottomed 96-well plate at a density of 10,000 cells per well. […] In a second series of experiments, cells were incubated under the same conditions but for 72 h. Etoposide was used as a positive control. Ten μL of MTT was added at a final concentration of 0.5 mg/mL, incubated at 37 °C for 4 h, and then solubilized with 10% SDS in 0.1 mM HCl and incubated overnight at 37 °C. Finally, a blue-colored compound (formazan) formation was measured at 570 nm in a multiplate reader (StatFax 4200, Awareness Technology, Inc., Palm City, FL, USA). The viability percentage was obtained as follows: Viability % = [treated cells DO × 100]/[DO cells control].
On the technique in general: Formazan colour is commonly taken as a measure of viable cells.

A further data set deals with T1, p47^phox (Homo sapiens, UniProt P14598).
T1 construct: we evaluated p47^phox translocation from the cytosol to the membrane in HL-60 differentiated cells; endogenous in cells; host or cells: neutrophil-differentiated HL-60 cells treated with PMA; membrane and cytosolic fractions obtained by cryo-fracture
T1 sequence (P14598 1-390): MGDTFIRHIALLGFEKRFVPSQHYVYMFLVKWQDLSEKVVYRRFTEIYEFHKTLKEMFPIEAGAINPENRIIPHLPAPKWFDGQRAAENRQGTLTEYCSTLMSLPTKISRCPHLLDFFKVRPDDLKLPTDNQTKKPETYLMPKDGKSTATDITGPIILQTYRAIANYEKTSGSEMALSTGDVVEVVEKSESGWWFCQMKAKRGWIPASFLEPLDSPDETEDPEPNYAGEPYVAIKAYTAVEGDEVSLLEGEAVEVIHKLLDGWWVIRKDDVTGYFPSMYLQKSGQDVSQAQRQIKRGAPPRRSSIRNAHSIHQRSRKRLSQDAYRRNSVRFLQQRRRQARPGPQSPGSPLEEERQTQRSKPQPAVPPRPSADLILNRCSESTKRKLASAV
Briefly: p47phox translocation from cytosol to membrane (Western blot) in PMA-stimulated HL-60 differentiated cells. Format: cell-based. Particulars: PMA 0.8 µM, 50 μM. How it is done: Neutrophil-differentiated HL-60 cells (2 × 10^6 cells/mL) were incubated at 37 °C in a humid atmosphere with 5% CO2 and 50 μM of the different acrylonitrile compounds, then PMA 0.8 μM was added and incubated for 1 h to induce the activation of the enzyme NADPH oxidase. As a positive inhibition control, VAS2870 (20 μM) was used. Another two controls were performed: one with cells activated by PMA in the presence of DMSO, and the other (NA, non-activated) with cells in the absence of PMA and the acrylonitrile compounds. In 15 mL conical tubes, 5 mL of cell suspension from each treatment and control condition was transferred at 2 × 10^6 cells/mL and centrifuged at 1000 rpm at 4 °C for 10 min. The supernatant was then discarded, and each pellet was re-suspended in 2 mL of a 4% PBS solution with 2 mM EGTA and 0.25 mM PMSF frozen at −80 °C for 10 min. Then each pellet was thawed on ice. After this, the cell suspension was passed through a glass tissue homogenizer (Deltalab®, I.C.T, S.L, La Rioja, Spain) 20 times. The freezing-thawing and homogenization processes were repeated three times. Finally, the homogenate was centrifuged at 15,000 rpm at 4 °C for 15 min. The supernatant (cytosolic fraction) was removed from the pellet (membranes were prepared). A fraction was removed for the determination of total proteins, and the remainder was stored at −80 °C for further analysis. […]
A general note: A western blot detects proteins with antibodies after separation by electrophoresis.

In the case of `N#C/C(=C\c1cc(-c2ccccc2)on1)C(=O)c1c[nH]c2ccccc12` [Compound C6], the viability at 72 h, 100 µM in “MTT cytotoxicity assay” was about 5%. The “translocation of p47phox to the membrane (in words)” value on p47^phox was “significantly reduced the translocation of p47^phox to the membrane”.

Broadly, the viability is the share of living cells, or the viability signal relative to a control. Read a low viability as a greater loss of cells.

For the origin of these results see PMC10376059, “New NADPH Oxidase 2 Inhibitors Display Potent Activity against Oxidative Stress by Targeting p22^phox-p47^phox Interactions” (Antioxidants, 2023).
